Test results reported in PubChem BioAssay AID248 (DTP/NCI, 2004).
Several values for one entry are separate records, joined by “and”; a condition that tells them apart may be missing. Identical values can stand only once. Inconclusive results and toxic doses are left out. Rule as the data show it: active = T/C of 150% or more; inactive = T/C below 125%.

Tested on: L1210 leukemia ip in BDF1 mice, survival T/C
Assay: NCI In Vivo Anticancer Drug Screen. Data for tumor model L1210 Leukemia (intraperitoneal) in B6D2F1 (BDF1) mice
Conditions: endpoint: mean survival time, higher = longer survival
How it was run: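 Each compound was tested against a transplantable tumor grown in mice. The endpoint was survival, with treated animals benchmarked against vehicle controls as a simple ratio.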

[1] = dose: 100.0 mg/kg/injection, schedule: Q01DX009 (ip), vehicle: saline with Tween-80
[2] = dose: 100.0 mg/kg/injection, schedule: Q04DX003 (ip), vehicle: saline with Tween-80
[3] = dose: 200.0 mg/kg/injection, schedule: Q01DX009 (ip), vehicle: saline with Tween-80
[4] = dose: 200.0 mg/kg/injection, schedule: Q04DX003 (ip), vehicle: saline with Tween-80
[5] = dose: 400.0 mg/kg/injection, schedule: Q04DX003 (ip), vehicle: saline with Tween-80
[6] = dose: 25.0 mg/kg/injection, schedule: Q01DX009 (ip), vehicle: Klucel (hydroxypropylcellulose) (HPC)
[7] = dose: 50.0 mg/kg/injection, schedule: Q01DX009 (ip), vehicle: Klucel (hydroxypropylcellulose) (HPC)
[8] = dose: 100.0 mg/kg/injection, schedule: Q01DX009 (ip), vehicle: Klucel (hydroxypropylcellulose) (HPC)
[9] = dose: 100.0 mg/kg/injection, schedule: Q04DX003 (ip), vehicle: Klucel (hydroxypropylcellulose) (HPC)
[10] = dose: 200.0 mg/kg/injection, schedule: Q01DX009 (ip), vehicle: Klucel (hydroxypropylcellulose) (HPC)
[11] = dose: 200.0 mg/kg/injection, schedule: Q04DX003 (ip), vehicle: Klucel (hydroxypropylcellulose) (HPC)
[12] = dose: 400.0 mg/kg/injection, schedule: Q01DX009 (ip), vehicle: Klucel (hydroxypropylcellulose) (HPC)
[13] = dose: 400.0 mg/kg/injection, schedule: Q04DX003 (ip), vehicle: Klucel (hydroxypropylcellulose) (HPC)
[14] = dose: 100.0 mg/kg/injection, schedule: Q01DX009 (ip), vehicle: saline
[15] = dose: 200.0 mg/kg/injection, schedule: Q01DX009 (ip), vehicle: saline

Measured: T/C

CC(=O)N1C(=O)NC(=O)C1(C)c1ccco1 (centres undefined)
inactive: [1] 103 % of control | [2] 94 % of control | [3] 100 % of control | [4] 97 % of control | dose: 400.0 mg/kg/injection, schedule: Q01DX009 (ip), vehicle: saline with Tween-80 97 % of control | [5] 105 % of control

CCO/C=C1\SC(=S)N(c2cccc(O)c2)C1=O
inactive: [6] 86 % of control | [7] 113 % of control | [8] 93 % of control

CCOC(=O)/C(C#N)=C/c1ccc(O)c(OC)c1
inactive: [8] 101 % of control | [9] 102 % of control | [10] 94 % of control | [11] 96 % of control | [12] 89 % of control | [13] 95 % of control

CC1(C)N=C(N)N=C(N)N1c1ccc(OCCCNC(=O)Nc2ccc(S(=O)(=O)F)cc2)c(Cl)c1
inactive: dose: 18.75 mg/kg/injection, schedule: Q04DX003 (ip), vehicle: saline with Tween-80 106 % of control | dose: 37.5 mg/kg/injection, schedule: Q04DX003 (ip), vehicle: saline with Tween-80 104 % of control | dose: 50.0 mg/kg/injection, schedule: Q01DX004 (ip), vehicle: saline 111 % of control | dose: 75.0 mg/kg/injection, schedule: Q04DX003 (ip), vehicle: saline with Tween-80 103 % of control | dose: 100.0 mg/kg/injection, schedule: Q01DX004 (ip), vehicle: saline 100 % of control

O=C(CNC(=O)OCc1ccccc1)NC(Cc1c[nH]c2ccccc12)C(=O)OCc1ccccc1 (centres undefined)
inactive: [2] 96 % of control | [4] 100 % of control | [5] 95 % of control

Cc1ccc(S(=O)(=O)OCC2OC(n3ccc(=O)[nH]c3=O)C3OC(C)(C)OC23)cc1 (centres undefined)
inactive: dose: 100.0 mg/kg/injection, schedule: Q01DX005 (ip), vehicle: saline 122 % of control

O=C(CBr)Nc1ccc(Cl)cc1
inactive: dose: 2.0 mg/kg/injection, schedule: Q04DX003 (ip), vehicle: Klucel (hydroxypropylcellulose) (HPC) 96 % of control | dose: 3.12 mg/kg/injection, schedule: Q01DX009 (ip), vehicle: Klucel (hydroxypropylcellulose) (HPC) 92 % of control | dose: 4.0 mg/kg/injection, schedule: Q04DX003 (ip), vehicle: Klucel (hydroxypropylcellulose) (HPC) 104 % of control | dose: 6.25 mg/kg/injection, schedule: Q01DX009 (ip), vehicle: Klucel (hydroxypropylcellulose) (HPC) 102 % of control | dose: 9.0 mg/kg/injection, schedule: Q04DX003 (ip), vehicle: Klucel (hydroxypropylcellulose) (HPC) 100 % of control | dose: 12.5 mg/kg/injection, schedule: Q01DX009 (ip), vehicle: Klucel (hydroxypropylcellulose) (HPC) 89 % of control | dose: 19.0 mg/kg/injection, schedule: Q04DX003 (ip), vehicle: Klucel (hydroxypropylcellulose) (HPC) 104 % of control and 91 % of control | [6] 89 % of control | dose: 50.0 mg/kg/injection, schedule: Q01DX001 (ip), vehicle: other 95 % of control | dose: 100.0 mg/kg/injection, schedule: Q01DX001 (ip), vehicle: other 101 % of control

O=C(O)c1ccc(OC(F)(F)C(F)Cl)cc1 (centres undefined)
inactive: [7] 100 % of control | [8] 98 % of control

COc1ccc(NC(=O)Oc2ccc(Cl)c(C)c2)c(OC)c1
inactive: [14] 118 % of control | [15] 114 % of control | dose: 400.0 mg/kg/injection, schedule: Q01DX009 (ip), vehicle: saline 108 % of control

CSC(=N)c1cccc(OCCCOc2ccccc2)c1
inactive: dose: 25.0 mg/kg/injection, schedule: Q01DX009 (ip), vehicle: saline with Tween-80 94 % of control | dose: 50.0 mg/kg/injection, schedule: Q01DX009 (ip), vehicle: saline with Tween-80 90 % of control | [1] 90 % of control | [3] 88 % of control

O=C(/C=C/c1ccccc1)N1CC2CCC(CC2)C1
inactive: [2] 95 % of control | [4] 93 % of control

CCN(CC)CC(=O)N1Cc2ccccc2Cc2ccccc2C1
inactive: dose: 25.0 mg/kg/injection, schedule: Q04DX003 (ip), vehicle: Klucel (hydroxypropylcellulose) (HPC) 92 % of control | dose: 50.0 mg/kg/injection, schedule: Q04DX003 (ip), vehicle: Klucel (hydroxypropylcellulose) (HPC) 100 % of control | [9] 107 % of control

Cc1c(N)nc(C(CC(N)=O)NCC(N)C(N)=O)nc1C(=O)NC(C(=O)NC(C)C(O)C(C)C(=O)NC(C(=O)NCCc1nc(-c2nc(C(=O)NCCC[S+](C)C)cs2)cs1)C(C)O)C(OC1OC(CO)C(O)C(O)C1OC1OC(CO)C(O)C(OC(N)=O)C1O)c1cnc[nH]1 (centres undefined)
inactive: dose: 1.0 mg/kg/injection, schedule: Q01DX009 (ip), vehicle: Klucel (hydroxypropylcellulose) (HPC) 106 % of control | dose: 2.0 mg/kg/injection, schedule: Q01DX009 (ip), vehicle: Klucel (hydroxypropylcellulose) (HPC) 95 % of control | dose: 4.0 mg/kg/injection, schedule: Q01DX009 (ip), vehicle: Klucel (hydroxypropylcellulose) (HPC) 107 % of control | dose: 8.0 mg/kg/injection, schedule: Q01DX009 (ip), vehicle: Klucel (hydroxypropylcellulose) (HPC) 101 % of control

CCCCC(=O)N/N=C/c1ccc(N(C)C)cc1
inactive: dose: 100.0 mg/kg/injection, schedule: Q01DX001 (ip), vehicle: saline 91 % of control | dose: 200.0 mg/kg/injection, schedule: Q01DX001 (ip), vehicle: saline 87 % of control | dose: 400.0 mg/kg/injection, schedule: Q01DX001 (ip), vehicle: saline 95 % of control

Cc1cc(C)cc(-n2nnc3ccccc3c2=O)c1
inactive: [8] 102 % of control | dose: 100.0 mg/kg/injection, schedule: Q04DX003 (ip), vehicle: saline 91 % of control | [10] 98 % of control | dose: 200.0 mg/kg/injection, schedule: Q04DX003 (ip), vehicle: saline 93 % of control | [12] 101 % of control | dose: 400.0 mg/kg/injection, schedule: Q04DX003 (ip), vehicle: saline 88 % of control

Cc1cc([N+](=O)[O-])c(NCCOC(=O)c2ccccc2Cl)c([N+](=O)[O-])c1
inactive: [8] 102 % of control | [10] 103 % of control | [12] 102 % of control

CCOC(=O)c1c(N)sc2c1CCC2
inactive: dose: 100.0 mg/kg/injection, schedule: Q01DX001 (ip), vehicle: saline with Tween-80 110 % of control | [14] 102 % of control | dose: 100.0 mg/kg/injection, schedule: Q04DX002 (ip), vehicle: saline 93 % of control | dose: 200.0 mg/kg/injection, schedule: Q01DX001 (ip), vehicle: saline with Tween-80 103 % of control | [15] 107 % of control | dose: 200.0 mg/kg/injection, schedule: Q04DX002 (ip), vehicle: saline 96 % of control | dose: 400.0 mg/kg/injection, schedule: Q01DX001 (ip), vehicle: saline with Tween-80 98 % of control | dose: 400.0 mg/kg/injection, schedule: Q04DX002 (ip), vehicle: saline 89 % of control

CC1(c2ccccc2)SC(C)(c2ccccc2)SC(c2ccccc2)(c2ccccc2)S1 (centres undefined)
inactive: dose: 100.0 mg/kg/injection, schedule: Q01DX001 (ip), vehicle: Klucel (hydroxypropylcellulose) (HPC) 100 % of control | dose: 200.0 mg/kg/injection, schedule: Q01DX001 (ip), vehicle: Klucel (hydroxypropylcellulose) (HPC) 98 % of control | dose: 400.0 mg/kg/injection, schedule: Q01DX001 (ip), vehicle: Klucel (hydroxypropylcellulose) (HPC) 91 % of control

CN(C)c1ccccc1C(=O)N/N=C/c1ccc(F)cc1
inactive: [8] 95 % of control | [9] 99 % of control | [10] 93 % of control | [11] 99 % of control | [12] 96 % of control | [13] 93 % of control

COc1cc(N(CCCl)CCCl)ccc1C=Nc1ccc(-n2ccnc2)cc1
inactive: dose: 68.8 mg/kg/injection, schedule: Q04DX002 (ip), vehicle: Klucel (hydroxypropylcellulose) (HPC) 98 % of control | dose: 137.5 mg/kg/injection, schedule: Q04DX002 (ip), vehicle: Klucel (hydroxypropylcellulose) (HPC) 98 % of control | dose: 275.0 mg/kg/injection, schedule: Q04DX002 (ip), vehicle: Klucel (hydroxypropylcellulose) (HPC) 102 % of control
